Experimental findings from PubChem BioAssay (NCI) are described below.

The structures appear in SMILES notation.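 Following 48 hours of exposure in 96-well plates, responses at five concentrations were used to interpolate endpoints linearly. The concentration for 50% growth inhibition is given as GI50. TGI denotes the concentration required for complete inhibition of growth.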 A value given as a limit tells only on which side of the number the result lay.

Some test systems named below: A498 renal; CAKI-1 renal; KM12 colon; ACHN renal; EKVX NSCLC; HCT-116 colon; MDA-MB-435; HT29 colon; NCI-H23 lung; SW-620 colon.
Holding throughout (assay): growth of human tumour cells (NCI), 48 h

In the case of `CCc1nc(N)nc(N)c1-c1ccc([N+](=O)[O-])c(Cl)c1`, the TGI in the assay with A498 renal, in the assay with CAKI-1 renal, in the assay on KM12 colon, with ACHN renal, in the assay with EKVX NSCLC and with HCT-116 colon was greater than 100 µM throughout. Moreover, the TGI with MDA-MB-435, in the assay with HT29 colon, in the assay on NCI-H23 lung and in the assay with SW-620 colon was greater than 100 µM in each case.

Take `C[C@H](NC(=O)CCC(F)(F)F)C(=O)N[C@@H]1C(=O)N(CCO)c2ncccc2-c2ccccc21`: the GI50 in the assay on A498 renal, with CAKI-1 renal, in the assay with KM12 colon, in the assay on ACHN renal, with EKVX NSCLC and in the assay with HCT-116 colon was greater than 100 µM in each case. Further, the GI50 in the assay with MDA-MB-435, with HT29 colon, with NCI-H23 lung and in the assay on SW-620 colon was greater than 100 µM each time. In addition, the TGI in the assay on A498 renal, in the assay on CAKI-1 renal, in the assay on KM12 colon, with ACHN renal, with EKVX NSCLC and in the assay on HCT-116 colon was greater than 100 µM each time. Further, the TGI in the assay with MDA-MB-435, in the assay with HT29 colon, with NCI-H23 lung and in the assay on SW-620 colon was greater than 100 µM throughout.

As for `CN(C)c1ccc(Sc2ccc3nc(N)nc(N)c3c2)cc1`, the GI50 was 3.34 µM in the assay with A498 renal; 2.03 µM in the assay with CAKI-1 renal; 1.16 µM in the assay with KM12 colon; 0.52 µM in the assay with ACHN renal; 2.27 µM in the assay on EKVX NSCLC; 0.305 µM in the assay with HCT-116 colon. Also, the GI50 in the assay with MDA-MB-435 is 0.542 µM; in the assay with HT29 colon, 0.453 µM; with NCI-H23 lung it was 0.665 µM; in the assay with SW-620 colon it was 0.318 µM. Besides, the TGI was determined as 14 µM in the assay on A498 renal; 16.8 µM with CAKI-1 renal; 12.2 µM in the assay with KM12 colon; 7.39 µM with ACHN renal; 23.5 µM with EKVX NSCLC; 1.64 µM in the assay on HCT-116 colon. Also, the TGI was 14.2 µM in the assay on MDA-MB-435, 12 µM with HT29 colon, 18 µM in the assay on NCI-H23 lung and 2.1 µM with SW-620 colon.

With `O=c1[nH]c2cc(O)ccc2n2cc3c(F)cccc3c12`, the GI50 in the assay on A498 renal is 3.76 µM; with CAKI-1 renal it was 0.903 µM; in the assay on KM12 colon, 1.86 µM; in the assay on ACHN renal, 2.04 µM; with EKVX NSCLC it was 4.69 µM; with HCT-116 colon it was 0.881 µM. For the same compound, the GI50 in the assay on MDA-MB-435 was 0.278 µM; in the assay on HT29 colon, 5.33 µM; in the assay on NCI-H23 lung it was 3.86 µM; in the assay on SW-620 colon, 0.477 µM. Moreover, the TGI with A498 renal, with CAKI-1 renal, with KM12 colon, with ACHN renal, in the assay with EKVX NSCLC and with HCT-116 colon was greater than 100 µM in each case. Moreover, the TGI in the assay on MDA-MB-435, in the assay on HT29 colon, in the assay with NCI-H23 lung and in the assay on SW-620 colon was greater than 100 µM each time.

Turning to `N#Cc1ccc(N2Cc3cc(Cl)ccc3OC3=C2C(=O)N(Cc2ccccc2)C3=O)cc1`, the GI50 in the assay on A498 renal is 1.83 µM; with CAKI-1 renal, 1.39 µM; with KM12 colon it was 2.7 µM; with ACHN renal it was 0.87 µM; in the assay with EKVX NSCLC, 2.02 µM; in the assay on HCT-116 colon it was 0.284 µM. Also, the GI50 with MDA-MB-435 is 1.34 µM; with HT29 colon it was 1.58 µM; in the assay with NCI-H23 lung, 2.14 µM; in the assay on SW-620 colon it was 0.278 µM. Moreover, the TGI in the assay with A498 renal came to 3.96 µM; with CAKI-1 renal, 2.78 µM; in the assay with KM12 colon, 8.01 µM; with ACHN renal, 2.2 µM; with EKVX NSCLC it was 4.92 µM; in the assay with HCT-116 colon, 1.25 µM. Further, the TGI in the assay on MDA-MB-435 is 3.27 µM; in the assay on HT29 colon it was 3.96 µM; in the assay on NCI-H23 lung, 5.34 µM; with SW-620 colon, 0.971 µM.

For `CCC1(N2C(=O)c3c(F)c(F)c(F)c(F)c3C2=O)C(=O)NC(=O)N(c2ccccc2)C1=O` (stereo not given), the GI50 in the assay with A498 renal was 12.2 µM; with CAKI-1 renal, 1.95 µM; with KM12 colon, 2.58 µM; with ACHN renal it was 4.02 µM; in the assay with EKVX NSCLC, 2.77 µM; in the assay with HCT-116 colon, 4.1 µM. For the same compound, the GI50 in the assay on MDA-MB-435 is 2.89 µM; in the assay with HT29 colon, 2.23 µM; in the assay with NCI-H23 lung it was 1.99 µM; in the assay with SW-620 colon, 1.76 µM. The TGI amounted to 25.9 µM with A498 renal; 4 µM in the assay with CAKI-1 renal; 8.31 µM in the assay on KM12 colon; 14.9 µM with ACHN renal; 8.01 µM in the assay on EKVX NSCLC; 18.2 µM with HCT-116 colon. Also, the TGI with MDA-MB-435 is 8.02 µM; with HT29 colon, 4.89 µM; in the assay with NCI-H23 lung, 4.02 µM; in the assay with SW-620 colon, 3.96 µM.

Turning to `Cn1c(COC(=O)NCCN2CCOCC2)nc2c(N3CCOCC3)nc(-c3ccccc3)nc21`, the GI50 was 1.44 µM in the assay on A498 renal; 0.449 µM in the assay with CAKI-1 renal; 1.53 µM in the assay with KM12 colon; 0.936 µM in the assay with ACHN renal; 1.48 µM in the assay on EKVX NSCLC; 0.397 µM with HCT-116 colon. Also, the GI50 in the assay on MDA-MB-435 was 1.07 µM; in the assay with HT29 colon, 0.35 µM; in the assay on NCI-H23 lung, 1.84 µM; with SW-620 colon, 0.444 µM. The TGI in the assay with A498 renal worked out at 2.83 µM; with CAKI-1 renal, 1.72 µM; in the assay on KM12 colon, 3.4 µM; with ACHN renal it was 2.23 µM; in the assay on EKVX NSCLC it was 3.36 µM; with HCT-116 colon, 1.7 µM. The TGI was determined as 2.47 µM with MDA-MB-435, 1.66 µM in the assay on HT29 colon, 4.1 µM in the assay on NCI-H23 lung and 1.78 µM with SW-620 colon.

Consider `COC(=O)Nc1nc2ccc(Sc3ccc(NC(=O)Nc4cc(C(F)(F)F)ccc4F)cc3)cc2[nH]1`, for which the GI50 in the assay on A498 renal is 2.71 µM; in the assay on CAKI-1 renal, 3.86 µM; in the assay on KM12 colon it was 0.113 µM; with ACHN renal it was 3.58 µM; in the assay on EKVX NSCLC, 4 µM; in the assay on HCT-116 colon, 1.37 µM. For the same compound, the GI50 with MDA-MB-435 is 0.605 µM; with HT29 colon it was 1.4 µM; in the assay with NCI-H23 lung, 3.84 µM; with SW-620 colon it was 1.43 µM. For the same compound, the TGI turned out to be 10.7 µM in the assay with A498 renal; 18.8 µM in the assay on CAKI-1 renal; 3.99 µM in the assay with KM12 colon; 10.2 µM with ACHN renal; 21.8 µM with EKVX NSCLC; 4.67 µM in the assay with HCT-116 colon. In addition, the TGI with MDA-MB-435 worked out at 2.71 µM; with HT29 colon it was 4.54 µM; in the assay with NCI-H23 lung, 11.9 µM; in the assay with SW-620 colon, 5.52 µM.

Turning to `CCCCCCCCCCCCNC(=O)[C@H]1CSC(c2ccc(OC)c(F)c2)N1` (stereo not given in full), the GI50 with A498 renal is 1.78 µM; with CAKI-1 renal, 1.56 µM; in the assay on KM12 colon, 0.335 µM; in the assay on ACHN renal, 1.63 µM; in the assay with EKVX NSCLC, 0.678 µM; with HCT-116 colon, 0.421 µM. Moreover, the GI50 is 0.193 µM in the assay with MDA-MB-435, 0.837 µM with HT29 colon, 1.6 µM with NCI-H23 lung and 0.87 µM in the assay on SW-620 colon. The TGI in the assay on A498 renal was 3.28 µM; in the assay on CAKI-1 renal, 2.94 µM; in the assay with KM12 colon it was 1.14 µM; in the assay with ACHN renal it was 3 µM; in the assay on EKVX NSCLC, 2 µM; with HCT-116 colon, 1.41 µM. The TGI with MDA-MB-435 is 0.385 µM; in the assay with HT29 colon, 2.42 µM; in the assay on NCI-H23 lung it was 3.27 µM; in the assay on SW-620 colon, 2.81 µM.

With `CN1CCN(C(=S)SCN2C(=O)c3ccccc3S2(=O)=O)CC1`, the GI50 is 93 µM with A498 renal; 51.9 µM in the assay on CAKI-1 renal; 25.3 µM with KM12 colon; 41.3 µM in the assay with ACHN renal; greater than 100 µM in the assay with EKVX NSCLC; 12.8 µM with HCT-116 colon. In addition, the GI50 in the assay with MDA-MB-435 was 28.2 µM; with HT29 colon, 4.24 µM; in the assay with NCI-H23 lung, 35.1 µM; in the assay on SW-620 colon, 9.31 µM. Further, the TGI in the assay with A498 renal was greater than 100 µM; in the assay with CAKI-1 renal it was greater than 100 µM; in the assay on KM12 colon it was greater than 100 µM; in the assay on ACHN renal it was greater than 100 µM; in the assay on EKVX NSCLC, greater than 100 µM; in the assay with HCT-116 colon it was 44.9 µM. The TGI in the assay on MDA-MB-435 is 99.4 µM; in the assay with HT29 colon, 18 µM; with NCI-H23 lung it was greater than 100 µM; in the assay with SW-620 colon, 74.9 µM.

On to `C=C(CC1(CC(=C)c2ccc(C(=O)O)cc2)C(=O)N(C)C(=O)N(C)C1=O)c1ccc(C(=O)O)cc1`, for which the GI50 in the assay with A498 renal was 53.2 µM; in the assay on CAKI-1 renal it was 60.3 µM; in the assay with KM12 colon, greater than 100 µM; in the assay with ACHN renal, greater than 100 µM; in the assay with EKVX NSCLC, greater than 100 µM; in the assay on HCT-116 colon it was 49.6 µM. Besides, the GI50 was 51.7 µM in the assay with MDA-MB-435, 48.7 µM in the assay with HT29 colon, greater than 100 µM with NCI-H23 lung and greater than 100 µM with SW-620 colon. Moreover, the TGI in the assay on A498 renal, with CAKI-1 renal, with KM12 colon, in the assay on ACHN renal, in the assay with EKVX NSCLC and in the assay on HCT-116 colon was greater than 100 µM each time. The TGI in the assay with MDA-MB-435, in the assay on HT29 colon, in the assay on NCI-H23 lung and in the assay with SW-620 colon was greater than 100 µM throughout.
